Measurements from the NIST ThermoML archive (doi:10.1016/j.jct.2011.06.024).

Test: mn = molality of the nth substance listed, in mol/kg
Details: 101 kPa, Liquid, Capillary tube (Ostwald / Ubbelohde) method

[Cl-].[Cl-].[Mg+2] [magnesium chloride] + O
viscosity [mPa·s]
Details	m1 = 0.003022	m1 = 0.004	m1 = 0.005	m1 = 0.007	m1 = 0.007995	m1 = 0.008994
303.15 K	0.8039	0.8323	0.8483	0.8693	0.8885	0.9112
308.15 K	0.7343	0.7545	0.7723	0.7896	0.8071	0.8198
313.15 K	0.6675	0.6865	0.7031	0.7195	0.7366	0.7601
318.15 K	0.6213	0.6301	0.6466	0.6648	0.6804	0.6989
323.15 K	0.5775	0.5975	0.6196	0.6244	0.6481	0.6697

O=[N+]([O-])[O-].O=[N+]([O-])[O-].[Mg+2] [magnesium nitrate] + O
viscosity [mPa·s]
Details	m1 = 0.003029	m1 = 0.004005	m1 = 0.005059	m1 = 0.007003	m1 = 0.008141	m1 = 0.009263
303.15 K	0.8036	0.8293	0.8454	0.8685	0.8903	0.9014
308.15 K	0.7327	0.751	0.7688	0.7895	0.8097	0.8156
313.15 K	0.6665	0.6847	0.7021	0.721	0.7356	0.7458
318.15 K	0.6195	0.6272	0.6449	0.6635	0.6813	0.6958
323.15 K	0.5575	0.5773	0.5927	0.6106	0.6176	0.6305

[Cl-].[K+] [potassium chloride] + O
viscosity [mPa·s]
Details	m1 = 0.003209	m1 = 0.003885	m1 = 0.004985	m1 = 0.006959	m1 = 0.008075	m1 = 0.009511
303.15 K	0.8063	0.8068	0.8076	0.8088	0.8094	0.8102
308.15 K	0.7279	0.7284	0.7292	0.7304	0.7286	0.7316
313.15 K	0.6616	0.6621	0.6629	0.6641	0.6647	0.6655
318.15 K	0.6045	0.6051	0.6059	0.6071	0.6077	0.6086
323.15 K	0.5552	0.5557	0.5566	0.5578	0.5584	0.5592

O=[N+]([O-])[O-].[K+] [potassium nitrate] + O
viscosity [mPa·s]
Details	m1 = 0.003067	m1 = 0.003997	m1 = 0.005019	m1 = 0.006997	m1 = 0.008615	m1 = 0.01033
303.15 K	0.8152	0.8175	0.819	0.8217	0.8244	0.8263
308.15 K	0.7365	0.7382	0.731	0.7433	0.7449	0.7472
313.15 K	0.6691	0.6705	0.6722	0.6752	0.6775	0.6782
318.15 K	0.6139	0.6157	0.6178	0.621	0.6231	0.6253
323.15 K	0.5658	0.568	0.5701	0.5737	0.5761	0.5785

CCCCCCCCCCCCOS(=O)(=O)[O-].[Na+] [sodium dodecyl sulfate] + O
viscosity [mPa·s]
Details	303.15 K	308.15 K	313.15 K	318.15 K	323.15 K
m1 = 0.007	0.8017	0.7228	0.6582	0.6009	0.5513
m1 = 0.01	0.8025	0.7285	0.6577	0.6026	0.5575
